Reference: paper PMC12763877 (Journal of Experimental & Clinical Cancer Research : CR, 2025)

Columns and labels:
[1] = tested on: pathological choroidal neovascularization; parameters: method as in PMID 30208056; details: mouse model; cited from earlier work
[2] = target: T1, APLNR (Homo sapiens, UniProt P35414); parameters: expressed in transfected cells; host or cells: HEK293; details: cited from earlier work
T1 sequence (P35414 1-380): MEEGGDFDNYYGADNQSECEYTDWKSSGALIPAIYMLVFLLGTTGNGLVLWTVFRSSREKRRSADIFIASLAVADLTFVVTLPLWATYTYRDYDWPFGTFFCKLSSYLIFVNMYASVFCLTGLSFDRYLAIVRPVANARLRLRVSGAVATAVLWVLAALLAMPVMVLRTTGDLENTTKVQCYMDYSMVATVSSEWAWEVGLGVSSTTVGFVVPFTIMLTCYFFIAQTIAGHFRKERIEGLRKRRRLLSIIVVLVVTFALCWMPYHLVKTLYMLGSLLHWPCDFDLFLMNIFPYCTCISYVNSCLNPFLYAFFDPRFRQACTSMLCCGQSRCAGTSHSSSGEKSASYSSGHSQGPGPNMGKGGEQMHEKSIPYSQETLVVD

[3] = tested on: zebrafish embryos; assay: Zebrafish embryo toxicity; type: in vivo, zebrafish (Danio rerio); details: embryos exposed 12 to 48 hpf, survival
Procedure: Transgenic zebrafish Tg(flk: EGFP) were obtained from the China Zebrafish Resource Center and maintained at 28 ± 1 °C under a 14-hour light/10-hour dark cycle. […] Survival rates were recorded to calculate the median lethal concentration (LC₅₀). For the retinal angiogenesis assay, embryos at 1 day post fertilization (dpf) were transferred to E3 medium containing 5 mM CoCl₂·6 H₂O and 2.5 µg/mL GS4012 to induce hypoxia and abnormal vessel formation. At 3 dpf, test compounds were added and incubation continued until 5 dpf. Blank, model, and vehicle (≤ 0.1% DMSO) controls were included, with at least three replicates per group (n = 10–15 embryos). At 5 dpf, retinal vasculature was imaged using fluorescence microscopy and analyzed for branching number, vessel length, and density using ImageJ. Data are presented as mean ± standard deviation (SD) and analyzed using one-way ANOVA followed by Tukey’s post hoc test, with p < 0.05 considered statistically significant.
The zebrafish (Danio rerio) model was employed due to its distinct advantages, the optical transparency, which enable in vivo vascular visualization. […] Firstly, the 8 candidate compounds underwent preliminary toxicity evaluation in zebrafish embryos. […] At 48 hpf, the number of surviving embryos was quantified, and the lethal dose 50 (LD50) for each compound was determined based on the survival data. […]

[4] = tested on: STING signaling pathway in HUVEC; assay: Western blot of STING pathway proteins; type: cell-based, human; details: NAC 5 mM pretreatment 2 h + candesartan 15 µM 48 h
Procedure: (§1) Total protein was extracted using RIPA lysis buffer (Solarbio, China) supplemented with phenylmethylsulfonyl fluoride (PMSF; Thermo Fisher Scientific, USA), protease inhibitor cocktail (Roche, Switzerland), and phosphatase inhibitor cocktail (Roche, Switzerland). Protein concentration was determined using a BCA protein assay kit (Thermo Fisher Scientific, USA). Equal amounts of protein were separated by 10% SDS-polyacrylamide gel electrophoresis (SDS-PAGE) and transferred onto nitrocellulose (NC) membranes. […] All primary antibodies were purchased from Cell Signaling Technology (CST, USA), except for GAPDH, which was obtained from Proteintech (Wuhan, China). After washing, the membranes were incubated with HRP-conjugated goat anti-rabbit or anti-mouse IgG secondary antibodies (Biosharp, China) for 1 h at room temperature. Protein bands were visualized using an enhanced chemiluminescence (ECL) detection system and scanned using a chemiluminescence imaging system.

[5] = tested on: HUVEC; assay: DNA damage: γ-H2AX western blot and alkaline comet assay; type: cell-based, human
Procedure: as §1

[6] = tested on: HUVEC; assay: Wound healing and Transwell assays; type: cell-based, human; details: candesartan 15, 7.5, 3.75 µM; sunitinib 2 µM; 48 h
Procedure: HUVEC cells were digested and inoculated into 6-well plates, with 1 × 10^5 cells added to each hole. On the second day, the gun head was drawn vertically along the edge of the upper lid of the hole plate. The cells were washed twice with PBS, the scratched cells were removed, and the serum free medium containing drugs was added. The photos were taken and recorded under the microscope for 0 h and cultured in a 5% CO2 incubator at 37℃. After 48 h, the sample was taken and photographed for recording. The cell scratch area was calculated with Image J software.
Migration assays were performed using the Transwell cell culture insert. HUVEC (3 × 10^4 cells) were suspended with 100µL serum-free medium containing different concentrations of compounds and placed in the upper layer of the Transwell cell culture insert, and 300µL medium containing 10% FBS was placed below the cell-permeable membrane. Following an incubation (48 h), the cells that had migrated through the membrane were stained with 0.2% crystal violet for 30 min and count.

[7] = tested on: FAK-MMP9 signaling in HUVEC; assay: Western blot of FAK and MMP-9; type: cell-based, human
Procedure: as §1

[8] = tested on: HUVEC; assay: Tube formation assay; type: cell-based, human; details: candesartan 15, 7.5, 3.75 µM; sunitinib 2 µM
Procedure: The 96-well plate was coated with 50 µl matrix glue per well, and then HUVEC was inoculated into the 96-well plate coated with matrix glue with a density of 4 × 10^4 cells per well. Photos were taken with an optical microscope (Nikon, China) after culture at 37℃ and 5% CO2 for 6–8 h, and the length of the generated blood vessels was analyzed using ImageJ.

## CCN(CC)Cc1cc(Nc2ccnc3cc(Cl)ccc23)ccc1O [Amodiaquine]
[1]
  Pathological choroidal neovascularization: reduces pathological choroidal neovascularization
[2]
  Inhibition of APLN/APLNR signaling: inhibits APLN/APLNR signaling in a concentration-dependent manner

## CSCC[C@H](NC(=O)[C@@H]1CCCN1C(=O)CNC(=O)[C@H](CCCCN)NC(=O)[C@H](Cc1c[nH]cn1)NC(=O)[C@H](CO)NC(=O)[C@H](CC(C)C)NC(=O)[C@H](CCCNC(=N)N)NC(=O)[C@@H]1CCCN1C(=O)[C@H](CCCNC(=N)N)NC(=O)[C@@H](N)CCC(N)=O)C(=O)N1CCC[C@H]1C(=O)N[C@@H](C)C(=O)O [Compound F13A]
[3]
  LD50(µM,48 h): 2.85 ± 0.31 µM

## CC(=O)N[C@@H](CS)C(=O)O [NAC, N-acetylcysteine]
[4]
  Effect on candesartan-induced STING pathway upregulation: attenuated candesartan-induced upregulation of STING pathway components
[5]; NAC 5 mM + candesartan 15 µM
  Effect on candesartan-induced γ-H2AX expression: significantly reduced γ-H2AX expression
[5]; NAC 5 mM pre-treatment + candesartan 15 µM
  Effect on candesartan-induced DNA damage (comet assay): effectively mitigate candesartan-induced DNA damage

## CCN(CC)CCNC(=O)c1c(C)[nH]c(/C=C2\C(=O)Nc3ccc(F)cc32)c1C [Sunitinib]
[6]
  Migratory and invasive capacities of HUVECs: significantly reduced the migratory and invasive capacities of HUVECs
[7]
  Expression of MMP9 and FAK: significantly decreased the expression of MMP9 and FAK
[8]
  Tube formation: mean mesh size and total mesh area: increase the mean mesh and the total meshe area
  Tube formation: number of junctions, total segment length, number of meshes: significantly reduced the number of junctions, total segment length, and the number of meshes
